Laboratory results taken from ChEMBL document CHEMBL1158064, “Depsidones from the endophytic fungus BCC 8616” (J Nat Prod, 2006).
≈ marks a conversion by molar mass, not a printed value.

Key:
[1] = tested on: KB; test: Cytotoxicity against human KB cells by colorimetric method; assay type: functional, cell-based
[2] = Cytotoxicity against human BC cells by colorimetric method; assay type: functional, cell-based

Row | Structure (SMILES) | IC50 [1] | IC50 [2]
1 | C/C=C(\C)c1cc(O)c(C)c2c1Oc1c(CO)c(O)cc(/C(C)=C/C)c1C(=O)O2 | > 5 µg/mL | > 5 µg/mL
2 | C/C=C(\C)c1cc(O)c(C)c2c1Oc1c(C=O)c(O)cc(/C(C)=C/C)c1C(=O)O2 | 6.5 µg/mL (≈ 16.5 µM) | 4.1 µg/mL (≈ 10.4 µM)
3 | C/C=C(\C)c1cc(O)c(C)c2c1Oc1c(COC)c(O)cc(/C(C)=C/C)c1C(=O)O2 | > 5 µg/mL | > 5 µg/mL
4 | C/C=C(\C)c1cc(OC)c(C)c2c1Oc1c(CO)c(O)cc(/C(C)=C/C(=O)O)c1C(=O)O2 [AURANTICIN A] | > 5 µg/mL | > 5 µg/mL
5 | COc1cccc2c1C(=O)c1c(O)c3c(c(O)c1C2=O)C[C@@](O)(C(=O)CO)C[C@@H]3O[C@H]1C[C@H](N)[C@H](O)[C@H](C)O1 [DOXORUBICIN] | – | 0.17 µg/mL (≈ 0.313 µM)
6 | Cc1c2ccncc2c(C)c2c1[nH]c1ccccc12 [ELLIPTECINE] | 0.21 µg/mL (≈ 0.853 µM) | 0.14 µg/mL (≈ 0.568 µM)
